Source: patent US9833497B2, “Human originated EGF domain proteins and use of the same” (CHENGDU SOURCEBIO LIMITED-LIABILITY COMPANY, priority 2013, dated 2017)

Experiments:
Type in all cases: cell-based
Serratia marcescens = assay: MIC against Gram-negative bacteria: Serratia marcescens; details: 5×10^5 CFU/mL
In short: (§1)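 Purified recombinant human EGF domain proteins are tested by broth dilution in LB against a 5×10^5 CFU/mL inoculum, with two-fold serial dilutions run in triplicate. Plates are incubated at 37° C with shaking, and the MIC is read as the lowest protein concentration without growth.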

Pseudomonas aeruginosa = assay: MIC against Gram-negative bacteria: Pseudomonas aeruginosa; details: 5×10^5 CFU/mL
In short: as §1

Klebsiella pneumonia = assay: MIC against Gram-negative bacteria: Klebsiella pneumonia; details: 5×10^5 CFU/mL
In short: as §1

Proteus vulgaris = assay: MIC against Gram-negative bacteria: Proteus vulgaris; details: 5×10^5 CFU/mL
In short: as §1

Moraxella catarrhalis = assay: MIC against Gram-negative bacteria: Moraxella catarrhalis; details: 5×10^5 CFU/mL
In short: as §1

E. coli DH5α = assay: Antibacterial activity: MIC and growth curve against E. coli DH5α in 96-well plate; details: minimal inhibitory concentration against E. coli DH5α; 96-well plate, 5×10^5 CFU/mL, 37° C., judged after 8 h
In short: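 MIC taken as lowest protein level with no bacterial growth, tracked by A600 every 30 min during 37 °C, 175 rpm culture. Two-fold protein series 50-12.5 μg/mL final, triplicate wells, against 5×10^5 CFU/mL of LB-washed mid-log cells.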

Proteus mirabilis = assay: MIC against Gram-negative bacteria: Proteus mirabilis; details: 5×10^5 CFU/mL
In short: as §1

Citrobacter diversus = assay: MIC against Gram-negative bacteria: Citrobacter diversus; details: 5×10^5 CFU/mL
In short: as §1

E. coli BL21 = assay: MIC against Gram-negative bacteria: E. coli BL21; details: 5×10^5 CFU/mL
In short: as §1

Aeromonas hydrophila = assay: MIC against Gram-negative bacteria: Aeromonas hydrophila; details: 5×10^5 CFU/mL
In short: as §1

Enterobacter cloacae = assay: MIC against Gram-negative bacteria: Enterobacter cloacae; details: 5×10^5 CFU/mL
In short: as §1

[1] = E. coli BL21, 10 h cultivation at 37° C.

PRT1414 (EVDCMDPTCSGRGVCVRGECHCSVGWGGTNCE; listed as Homo sapiens)
MIC against S. marcescens (Serratia marcescens; Serratia marcescens, 10 h cultivation at 37° C.): 25 mg/L | MIC against P. aeruginosa (Pseudomonas aeruginosa; Pseudomonas aeruginosa, 10 h cultivation at 37° C.): 50 mg/L | MIC against K. pneumonia (Klebsiella pneumonia; Klebsiella pneumonia, 10 h cultivation at 37° C.): 12.5 mg/L | MIC against P. vulgaris (Proteus vulgaris; Proteus vulgaris, 10 h cultivation at 37° C.): 12.5 mg/L | MIC against M. catarrhalis (Moraxella catarrhalis; Moraxella catarrhalis, 10 h cultivation at 37° C.): 50 mg/L | MIC (E. coli DH5α): 50 mg/L | MIC against P. mirabilis (Proteus mirabilis; Proteus mirabilis, 10 h cultivation at 37° C.): 12.5 mg/L | MIC against C. diversus (Citrobacter diversus; Citrobacter diversus, 10 h cultivation at 37° C.): 12.5 mg/L | MIC against E. coli BL21 (E. coli BL21; [1]): 12.5 mg/L | MIC against A. hydrophila (Aeromonas hydrophila; Aeromonas hydrophila, 10 h cultivation at 37° C.): 12.5 mg/L | MIC against E. cloacae (Enterobacter cloacae; Enterobacter cloacae, 10 h cultivation at 37° C.): 50 mg/L

PRT1248 (SACYCSATSRCDPQTGACLCHAGWWGRSCN; listed as Homo sapiens)
MIC against S. marcescens (Serratia marcescens; Serratia marcescens, 96-well plate, 37° C., 10 h): 25 mg/L | MIC against P. aeruginosa (Pseudomonas aeruginosa; Pseudomonas aeruginosa, 96-well plate, 37° C., 10 h): 25 mg/L | MIC against K. pneumonia (Klebsiella pneumonia; Klebsiella pneumonia, 96-well plate, 37° C., 10 h): 25 mg/L | MIC against P. vulgaris (Proteus vulgaris; Proteus vulgaris, 96-well plate, 37° C., 10 h): 12.5 mg/L | MIC against M. catarrhalis (Moraxella catarrhalis; Moraxella catarrhalis, 96-well plate, 37° C., 10 h): 12.5 mg/L | MIC (E. coli DH5α): 25 mg/L | MIC against P. mirabilis (Proteus mirabilis; Proteus mirabilis, 96-well plate, 37° C., 10 h): 25 mg/L | MIC against C. diversus (Citrobacter diversus; Citrobacter diversus, 96-well plate, 37° C., 10 h): 25 mg/L | MIC against E. coli BL21 (E. coli BL21; E. coli BL21, 96-well plate, 37° C., 10 h): 25 mg/L | MIC against A. hydrophila (Aeromonas hydrophila; Aeromonas hydrophila, 96-well plate, 37° C., 10 h): 12.5 mg/L | MIC against E. cloacae (Enterobacter cloacae; Enterobacter cloacae, 96-well plate, 37° C., 10 h): 12.5 mg/L

PRT549 (CDCSGNGDPNLLFSDCDPLTGACRGCLRHTTGPRCEICAPGFYGNALLPGNCTR; listed as Homo sapiens)
MIC against S. marcescens (Serratia marcescens; 96-well plate, 37° C., 10 h): 12.5 mg/L | MIC against P. aeruginosa (Pseudomonas aeruginosa; 96-well plate, 37° C., 10 h): 12.5 mg/L | MIC against K. pneumonia (Klebsiella pneumonia; 96-well plate, 37° C., 10 h): 50 mg/L | MIC against P. vulgaris (Proteus vulgaris; 96-well plate, 37° C., 10 h): 25 mg/L | MIC against M. catarrhalis (Moraxella catarrhalis; 96-well plate, 37° C., 10 h): 25 mg/L | MIC (E. coli DH5α): 12.5 mg/L | MIC against P. mirabilis (Proteus mirabilis; 96-well plate, 37° C., 10 h): 12.5 mg/L | MIC against C. diversus (Citrobacter diversus; 96-well plate, 37° C., 10 h): 12.5 mg/L | MIC against E. coli BL21 (E. coli BL21; 96-well plate, 37° C., 10 h): 50 mg/L | MIC against A. hydrophila (Aeromonas hydrophila; 96-well plate, 37° C., 10 h): 50 mg/L | MIC against E. cloacae (Enterobacter cloacae; 96-well plate, 37° C., 10 h): 12.5 mg/L

PRT671 (RVVVCPLPCMNGGQCSSRNQCLCPPDFTGRFCQ; listed as Homo sapiens)
MIC S. marcescens (Serratia marcescens; 96-well plate, 37° C., 10 h): 12.5 mg/L | MIC P. aeruginosa (Pseudomonas aeruginosa; 96-well plate, 37° C., 10 h): 12.5 mg/L | MIC K. pneumonia (Klebsiella pneumonia; 96-well plate, 37° C., 10 h): 12.5 mg/L | MIC P. vulgaris (Proteus vulgaris; 96-well plate, 37° C., 10 h): 25 mg/L | MIC M. catarrhalis (Moraxella catarrhalis; 96-well plate, 37° C., 10 h): 25 mg/L | MIC (E. coli DH5α): 50 mg/L | MIC P. mirabilis (Proteus mirabilis; 96-well plate, 37° C., 10 h): 12.5 mg/L | MIC C. diversus (Citrobacter diversus; 96-well plate, 37° C., 10 h): 12.5 mg/L | MIC E. coli BL21 (E. coli BL21; 96-well plate, 37° C., 10 h): 12.5 mg/L | MIC A. hydrophila (Aeromonas hydrophila; 96-well plate, 37° C., 10 h): 25 mg/L | MIC E. cloacae (Enterobacter cloacae; 96-well plate, 37° C., 10 h): 12.5 mg/L

PRT632 (CKCHPLGSQEDQCHPKTGQCTCRPGVTGQACDRCQLGFFGFSIKGCRA; listed as Homo sapiens)
MIC S. marcescens (Serratia marcescens; 96-well plate, 37° C., 10 h): 50 mg/L | MIC P. aeruginosa (Pseudomonas aeruginosa; 96-well plate, 37° C., 10 h): 12.5 mg/L | MIC K. pneumonia (Klebsiella pneumonia; 96-well plate, 37° C., 10 h): 25 mg/L | MIC P. vulgaris (Proteus vulgaris; 96-well plate, 37° C., 10 h): 25 mg/L | MIC M. catarrhalis (Moraxella catarrhalis; 96-well plate, 37° C., 10 h): 25 mg/L | MIC (E. coli DH5α): 12.5 mg/L | MIC P. mirabilis (Proteus mirabilis; 96-well plate, 37° C., 10 h): 12.5 mg/L | MIC C. diversus (Citrobacter diversus; 96-well plate, 37° C., 10 h): 50 mg/L | MIC E. coli BL21 (E. coli BL21; 96-well plate, 37° C., 10 h): 25 mg/L | MIC A. hydrophila (Aeromonas hydrophila; 96-well plate, 37° C., 10 h): 25 mg/L | MIC E. cloacae (Enterobacter cloacae; 96-well plate, 37° C., 10 h): 12.5 mg/L

PRT881 (AEGPCGERPCENGGICFLLDGHPTCDCSTTGYGGKLCS; listed as Homo sapiens)
MIC (μg/mL) S. marcescens (Serratia marcescens; S. marcescens, 10 h cultivation at 37° C.): 12.5 µg/mL | MIC (μg/mL) P. aeruginosa (Pseudomonas aeruginosa; P. aeruginosa, 10 h cultivation at 37° C.): 12.5 µg/mL | MIC (μg/mL) K. pneumonia (Klebsiella pneumonia; K. pneumonia, 10 h cultivation at 37° C.): 25 µg/mL | MIC (μg/mL) P. vulgaris (Proteus vulgaris; P. vulgaris, 10 h cultivation at 37° C.): 25 µg/mL | MIC (μg/mL) M. catarrhalis (Moraxella catarrhalis; M. catarrhalis, 10 h cultivation at 37° C.): 25 µg/mL | MIC (E. coli DH5α): 12.5 mg/L | MIC (μg/mL) P. mirabilis (Proteus mirabilis; P. mirabilis, 10 h cultivation at 37° C.): 12.5 µg/mL | MIC (μg/mL) C. diversus (Citrobacter diversus; C. diversus, 10 h cultivation at 37° C.): 12.5 µg/mL | MIC (μg/mL) E. coli BL21 (E. coli BL21; [1]): 12.5 µg/mL | MIC (μg/mL) A. hydrophila (Aeromonas hydrophila; A. hydrophila, 10 h cultivation at 37° C.): 25 µg/mL | MIC (μg/mL) E. cloacae (Enterobacter cloacae; E. cloacae, 10 h cultivation at 37° C.): 12.5 µg/mL
